Measured values: paper PMC12543186, “Discovery of C-12 dithiocarbamate andrographolide analogue as a novel antioxidant and α-glucosidase inhibitors: In vitro and in silico studies” (PLOS One, 2025)
Several values for one entry are separate records, joined by “and”; a condition that tells them apart may be missing. Equal values may be shown once. Read-outs that look alike come from different tables or passages of the source.

Experiments:
[1] = molecular target: T1, α-glucosidase from Saccharomyces cerevisiae (Saccharomyces cerevisiae, UniProt P38158); experiment: α-glucosidase inhibition activity (p-NPG substrate); format: biochemical; settings: for α-glucosidase inhibition (%), Mean: 2000 μM; for IC50: concentration range up to 2000 μM
T1 sequence (P38158 whole entry): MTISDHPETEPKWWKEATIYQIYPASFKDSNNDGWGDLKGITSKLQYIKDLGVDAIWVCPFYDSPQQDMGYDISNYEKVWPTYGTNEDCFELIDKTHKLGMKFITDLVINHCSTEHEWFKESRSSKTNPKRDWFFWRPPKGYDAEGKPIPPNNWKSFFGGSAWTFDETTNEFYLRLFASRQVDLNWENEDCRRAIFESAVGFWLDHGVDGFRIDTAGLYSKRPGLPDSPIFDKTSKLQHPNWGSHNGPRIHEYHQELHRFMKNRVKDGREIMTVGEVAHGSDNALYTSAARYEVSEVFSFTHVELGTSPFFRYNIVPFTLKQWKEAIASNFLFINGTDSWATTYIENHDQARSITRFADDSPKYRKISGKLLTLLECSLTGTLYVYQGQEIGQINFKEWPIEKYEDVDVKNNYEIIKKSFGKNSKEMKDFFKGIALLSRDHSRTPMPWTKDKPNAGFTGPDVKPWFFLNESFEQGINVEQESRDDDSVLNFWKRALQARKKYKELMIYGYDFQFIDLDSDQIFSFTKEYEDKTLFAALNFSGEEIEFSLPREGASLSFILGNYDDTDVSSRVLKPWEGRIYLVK
Protocol: An in vitro α-glucosidase inhibitory assay is commonly used to evaluate the inhibitory effects of various compounds on the enzyme α-glucosidase, which is involved in carbohydrate digestion. Inhibiting this enzyme results in slower glucose absorption, which can be beneficial for managing postprandial blood sugar levels in diabetic conditions. This assay was modified from the methods described by Yusuf et al.. The procedure involved mixing 25 μL of the sample, 150 μL of phosphate buffer saline (PBS) pH 7.4, and 75 μL of 10 mM p-NPG. The mixture was incubated at 37 °C for 10 min. Next, 50 μL of α-glucosidase enzyme from Saccharomyces cerevisiae at a concentration of 0.1 U/mL was added, then incubated at 37 °C for 10 min. To terminate the reaction, […] of 0.1 M sodium carbonate (Na2CO3) was added to the mixture. The absorbance was measured using a microplate reader. The percentage of α-glucosidase inhibition was calculated as follows:
α−glucosidase inhibition(%)=(1–{A−B/C−D})×100
Where A was the absorbance of the sample with α-glucosidase enzyme, B was the absorbance of the sample, C was the absorbance of vehicle with α-glucosidase enzyme, and D was the absorbance of the vehicle (blank).

[2] = DPPH radical scavenging activity; settings: for % Inhibition (DPPH), replicate 1 / % DPPH Inhibition, Mean / % Inhibition (DPPH), replicate 2 / % Inhibition (DPPH), replicate 3: 500 μM; for % Inhibition (DPPH), replicate 1: first replicate column; for % DPPH Inhibition, Mean: mean of n = 3; for % Inhibition (DPPH), replicate 2: second replicate column; for % Inhibition (DPPH), replicate 3: third replicate column; for IC50: 200 μM DPPH solution
Protocol: The DPPH radical scavenging activity was conducted to thoroughly evaluate the antioxidant potential of andrographolide and its analogues. We modified the assay employing the Sekhon-Loodu and Rupasinghe methods. A DPPH solution was prepared in absolute ethanol, with a concentration of 200 μM. Next, 100 μL of DPPH solution was mixed with 100 μL of the sample in a 96-well plate. The mixture was then incubated for 30 minutes at room temperature. Following incubation, we measured the absorbance at 517 nm using a microplate reader. We tested the antioxidant properties of the compounds at a concentration of 500 μM to detect the weak-to-moderate antioxidants while addressing solubility limitations and minimizing assay artefacts, consistent with previous research. The DPPH radical scavenging activity was precisely expressed as a percentage of DPPH inhibition (% DPPH Inhibition). We selected candidates based on their higher inhibitory activity and prepared various concentrations of these candidates for testing. α-tocopherol, also known as vitamin E, was employed as a positive control. The % DPPH Inhibition was calculated as follows:
%DPPH Inhibition=(1–{A/B})×100
Where A was the absorbance of the DPPH with sample, and B was the absorbance of the DPPH with vehicle (blank).

[3] = molecular target: T1, α-glucosidase from Saccharomyces cerevisiae; experiment: Surface plasmon resonance, steady-state affinity; format: binding
Protocol: All experiments were conducted using a Biacore X100 instrument at 25 °C with a running buffer of 1X PBS-P+ (10 mM phosphate buffer pH 7.4, 2.7 mM KCl, 137 mM NaCl, 0.05% Tween 20) supplemented with 5% DMSO. Compounds were initially dissolved in DMSO to a final concentration of 14 mM. The stock solution was then diluted to 700 μM in 1.05X PBS-P+ to prepare a compound solution containing 1X PBS-P+ with 5% DMSO. This compound solution was utilized to prepare the required concentrations for injections into the Biacore system. α-glucosidase from Saccharomyces cerevisiae was immobilized onto a CM5 chip following standard amine coupling procedures: the CM5 chip, containing channel 1 and 2, was activated with an injection of NHS/EDC mixture with a contact time of 540 s at a flow rate of 10 µL/min. This was followed by multiple injections of α-glucosidase dissolved in 10 mM sodium acetate pH 4.0 (50 µg/mL) onto channel 2, also with a contact time of 540 s at a flow rate of 10 µL/min. Both channels were inactivated by an injection of 1M ethanolamine at a flow rate of 10 µL/min for 540 s. An immobilization level of 3300 RU of α-glucosidase was achieved.
Multi-cycle affinity studies were conducted with a 100 s association phase and a 60 s dissociation phase, using a flow rate of 30 µL/min. Compounds were injected onto the chip at increasing concentrations of 7, 21, 70, 210, and 490 μM. Binding measurements were taken after reference subtraction of channel 1 (no immobilized α-glucosidase) and after subtracting the results from a blank injection with zero analyte concentration. All data evaluation was performed with Biacore X100 evaluation software (version 2.0).

[4] = Ferric reducing antioxidant power (FRAP) activity; settings: for FRAP, Ascorbic acid equivalent, replicate 3: third replicate column
Protocol: The FRAP activity assay was performed to assess the reducing power ability to reduce ferric ions (Fe^3+) to ferrous ions (Fe^2+), following the established method described by Sekhon-Loodu and Rupasinghe. The FRAP reagent was freshly prepared by combining 300 mM acetate buffer pH 3.6, 10 mM 2,4,6- Tri(2-pyridyl)-s-triazine (TPTZ) dissolved in 40 mM HCl, and 20 mM FeCl3 in a ratio of 10:1:1. Ferrous sulfate (FeSO4) was used as a standard, with ascorbic acid serving as a control. The assay was conducted in a 96-well plate by mixing 20 μL of the sample, standard, or positive control with 80 μL of the FRAP solution. The mixture was then incubated for 20 minutes at room temperature, after which we measured absorbance at 595 nm using a microplate reader. The results were expressed as FRAP value, reported as ascorbic acid equivalent in μM (AAE, μM), providing a definitive measure of reducing power.

[5] = read-out: α-glucosidase inhibition (%), Mean, 31.2 μM
[6] = read-out: α-glucosidase inhibition (%), Mean, 62.5 μM
[7] = read-out: α-glucosidase inhibition (%), Mean, 125 μM
[8] = read-out: α-glucosidase inhibition (%), Mean, 250 μM
[9] = read-out: α-glucosidase inhibition (%), Mean, 500 μM
[10] = read-out: α-glucosidase inhibition (%), Mean, 1000 μM
[11] = read-out: α-glucosidase inhibition (%), Mean, 2000 μM
[12] = read-out: α-glucosidase inhibition (%), replicate 1, 31.2 μM, first replicate column
[13] = read-out: α-glucosidase inhibition (%), replicate 1, 62.5 μM, first replicate column
[14] = read-out: α-glucosidase inhibition (%), replicate 1, 125 μM, first replicate column
[15] = read-out: α-glucosidase inhibition (%), replicate 1, 250 μM, first replicate column
[16] = read-out: α-glucosidase inhibition (%), replicate 1, 500 μM, first replicate column
[17] = read-out: α-glucosidase inhibition (%), replicate 1, 1000 μM, first replicate column
[18] = read-out: α-glucosidase inhibition (%), replicate 1, 2000 μM, first replicate column
[19] = read-out: α-glucosidase inhibition (%), replicate 2, 31.2 μM, second replicate column
[20] = read-out: α-glucosidase inhibition (%), replicate 2, 62.5 μM, second replicate column
[21] = read-out: α-glucosidase inhibition (%), replicate 2, 125 μM, second replicate column
[22] = read-out: α-glucosidase inhibition (%), replicate 2, 250 μM, second replicate column
[23] = read-out: α-glucosidase inhibition (%), replicate 2, 500 μM, second replicate column
[24] = read-out: α-glucosidase inhibition (%), replicate 2, 1000 μM, second replicate column
[25] = read-out: α-glucosidase inhibition (%), replicate 2, 2000 μM, second replicate column
[26] = read-out: α-glucosidase inhibition (%), replicate 3, 31.2 μM, third replicate column
[27] = read-out: α-glucosidase inhibition (%), replicate 3, 62.5 μM, third replicate column
[28] = read-out: α-glucosidase inhibition (%), replicate 3, 125 μM, third replicate column
[29] = read-out: α-glucosidase inhibition (%), replicate 3, 250 μM, third replicate column
[30] = read-out: α-glucosidase inhibition (%), replicate 3, 500 μM, third replicate column
[31] = read-out: α-glucosidase inhibition (%), replicate 3, 1000 μM, third replicate column
[32] = read-out: α-glucosidase inhibition (%), replicate 3, 2000 μM, third replicate column

Compound | inhibition at 31.2 µM [1, 5] | inhibition at 62.5 µM [1, 6] | inhibition at 125 µM [1, 7] | inhibition at 250 µM [1, 8] | inhibition at 500 µM [1, 9] | inhibition at 1000 µM [1, 10] | inhibition at 2000 µM [1, 11] | inhibition at 31.2 µM [1, 12] | inhibition at 62.5 µM [1, 13] | inhibition at 125 µM [1, 14] | inhibition at 250 µM [1, 15] | inhibition at 500 µM [1, 16] | inhibition at 1000 µM [1, 17] | inhibition at 2000 µM [1, 18] | inhibition at 31.2 µM [1, 19] | inhibition at 62.5 µM [1, 20] | inhibition at 125 µM [1, 21] | inhibition at 250 µM [1, 22] | inhibition at 500 µM [1, 23] | inhibition at 1000 µM [1, 24] | other results
C[C@H]1O[C@H](O[C@H]2[C@H](O)[C@@H](O)[C@@H](O[C@H]3[C@H](O)[C@@H](O)C(O)O[C@@H]3CO)O[C@@H]2CO)[C@H](O)[C@@H](O)[C@@H]1N[C@H]1C=C(CO)[C@@H](O)[C@H](O)[C@H]1O (stereo partly shown) [Acarbose, acarbose] | 6.67% | 3.73% | 7.12% | 10.6% | 31.1% | 35.9% | 38.4% | 5.58% | 3.74% | 6.97% | 10.5% | 31.2% | 36% | 37.5% | 5.89% | 3.63% | 7.34% | 10.7% | 31.1% | 36.7% | α-glucosidase inhibition (%), Mean [1]: 38.3925%; inhibition at 2000 µM [1, 25]: 39.4%; inhibition at 31.2 µM [1, 26]: 8.54%; inhibition at 62.5 µM [1, 27]: 3.82%; inhibition at 125 µM [1, 28]: 7.06%; inhibition at 250 µM [1, 29]: 10.5%; inhibition at 500 µM [1, 30]: 31.1%; inhibition at 1000 µM [1, 31]: 34.8%; inhibition at 2000 µM [1, 32]: 38.3%
C=C1CC[C@@H]2[C@](C)(CO)[C@H](O)CC[C@@]2(C)[C@@H]1C/C=C1/C(=O)OC[C@H]1O [Andrographolide] | 0.0652% | -0.749% | 4.88% | 1.93% | 11.9% | 13.6% | 21.1% | -0.3% | 2.19% | 6.76% | -2.97% | 13.1% | 17.1% | 22.5% | 1.47% | 3.06% | 3.19% | 3.6% | 12% | 13.5% | α-glucosidase inhibition (%), Mean [1]: 21.1432%; IC50 ([1]; read-out: IC50 (α-glucosidase inhibitory activity)): > 2000 µM; inhibition at 2000 µM [1, 25]: 21%; inhibition at 31.2 µM [1, 26]: -0.976%; inhibition at 62.5 µM [1, 27]: -7.49%; inhibition at 125 µM [1, 28]: 5.68%; inhibition at 250 µM [1, 29]: 5.16%; inhibition at 500 µM [1, 30]: 10.6%; inhibition at 1000 µM [1, 31]: 11%; inhibition at 2000 µM [1, 32]: 19.9%; % Inhibition (DPPH), replicate 1 [2]: 17.9296%; % DPPH Inhibition, Mean [2]: 14.4808%; % Inhibition (DPPH), replicate 2 [2]: 11.6610%; % Inhibition (DPPH), replicate 3 [2]: 13.8517%; Kd ([3]; SPR steady-state affinity model, 25 °C, immobilized yeast α-glucosidase, read-out: dissociation constant (KD)): 137 ± 85.1 µM; FRAP, Ascorbic acid equivalent, replicate 3 ([4]; 500 μM): -2.0327 AAE, μM
C=C1CCC2C(C)(COC(C)=O)C(OC(C)=O)CCC2(C)C1CC(SC(=S)N1CCN(c2ccc(O)cc2)CC1)C1=CCOC1=O (stereo not shown) [compound 3f] | -0.49% | 5.53% | 15.2% | 26.6% | 56.3% | 78% | 81.9% | 3.15% | 5.24% | 19.1% | 28.2% | 59.3% | 78.6% | 81.9% | -1.2% | 7.4% | 17.6% | 28.1% | 57.1% | 78% | IC50 ([1]; IC50 (α-glucosidase inhibitory activity)): 411 µM and ~411 µM; inhibition at 2000 µM [1, 25]: 81.9%; inhibition at 31.2 µM [1, 26]: -3.42%; inhibition at 62.5 µM [1, 27]: 3.94%; inhibition at 125 µM [1, 28]: 8.93%; inhibition at 250 µM [1, 29]: 23.5%; inhibition at 500 µM [1, 30]: 52.6%; inhibition at 1000 µM [1, 31]: 77.3%; inhibition at 2000 µM [1, 32]: 82%; IC50 [2]: ~25 µM; % Inhibition (DPPH), replicate 1 [2]: 85.7465%; % DPPH Inhibition, Mean [2]: 84% and 84.47 ± 1.14% and 84.4719%; % Inhibition (DPPH), replicate 2 [2]: 83.5328%; % Inhibition (DPPH), replicate 3 [2]: 84.1364%; Kd [3]: 12.9 µM; fold stronger affinity than andrographolide ([3]; from SPR KD values): approximately 10 fold; FRAP, Ascorbic acid equivalent, replicate 1 ([4]; 500 μM, first replicate column): 109.9203 AAE, μM; FRAP, Ascorbic acid equivalent, replicate 2 ([4]; 500 μM, second replicate column): 87.9587 AAE, μM; FRAP, Ascorbic acid equivalent, replicate 3 ([4]; 500 μM): 67.0175 AAE, μM; FRAP activity ([4]; 600 μM): 253.90 ± 47.40 AAE
Cc1c(C)c2c(c(C)c1O)CC[C@@](C)(CCC[C@H](C)CCC[C@H](C)CCCC(C)C)O2 [α-tocopherol] | – | – | – | – | – | – | – | – | – | – | – | – | – | – | – | – | – | – | – | – | IC50 [2]: ~25 µM
